{
  "source": "patent US6383773B2",
  "about": "“Penicillin conversion” (Massachusetts Institute of Technology, priority 1998, dated 2002)",
  "key": {"C. acremonium expandase": {"target": "T1, C. acremonium expandase (Hapsidospora chrysogena, UniProt P11935)", "T1 sequence (P11935 1-332)": "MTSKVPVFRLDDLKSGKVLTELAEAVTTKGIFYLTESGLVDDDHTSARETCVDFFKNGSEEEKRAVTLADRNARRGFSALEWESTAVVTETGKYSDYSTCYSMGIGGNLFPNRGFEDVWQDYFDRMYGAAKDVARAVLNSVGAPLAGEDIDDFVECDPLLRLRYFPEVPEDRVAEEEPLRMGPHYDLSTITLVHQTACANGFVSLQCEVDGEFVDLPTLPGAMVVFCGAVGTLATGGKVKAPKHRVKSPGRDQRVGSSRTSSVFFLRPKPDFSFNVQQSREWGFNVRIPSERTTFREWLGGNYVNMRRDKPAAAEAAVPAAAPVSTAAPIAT", "conditions": "cited from earlier work"}, "[1]": {"target": "T2, S. clavuligerus expandase (Streptomyces clavuligerus, UniProt P18548)", "T2 construct": "The cells were resuspended in the same buffer and disrupted by four 25-sec. sonication treatments; endogenous in cells; host or cells: S. clavuligerus mutant NP1, crude cell-free extract", "T2 sequence (P18548 whole entry)": "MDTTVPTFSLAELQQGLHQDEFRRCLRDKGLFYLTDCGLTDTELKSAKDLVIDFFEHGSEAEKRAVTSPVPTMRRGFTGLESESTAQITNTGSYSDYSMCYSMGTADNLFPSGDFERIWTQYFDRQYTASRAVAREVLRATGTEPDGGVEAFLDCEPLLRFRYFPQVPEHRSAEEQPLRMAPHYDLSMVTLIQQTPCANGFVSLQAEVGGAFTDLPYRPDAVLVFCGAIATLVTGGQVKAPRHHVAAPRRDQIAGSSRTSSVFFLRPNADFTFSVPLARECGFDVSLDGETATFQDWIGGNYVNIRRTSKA", "conditions": "literature reports (Jensen 1982; Dotzlaf 1989; Yeh 1994; Maeda 1995); cited from earlier work"}, "[2]": {"test_system": "immobilized S. clavuligerus NP1 cells", "test": "Conversion of penicillin G by immobilized cells (Example 5)", "format": "cell-based", "method": "Culture Conditions: A seed culture of S. clavuligerus mutant NP-1 was made by thawing a frozen preparation of spores and inoculating 40μl into 40 ml MST medium containing 90 mM MOPS buffer, pH 7.0, 1% starch and 3% trypticase soy broth medium without dextrose (BBL Becton Dickinson Microbiology Systems, Cockeysville, Md.) in 250 ml baffled flasks. The flasks were incubated for 2 days at 30° C. and 250 rpm. One ml of the seed culture was used as inoculum for the main culture which contained 80 ml of MST medium in 500 ml unbaffled flasks. The flasks were incubated for 24 h at 30° C. and 250 rpm.\nPreparation of Resting Cells: Cells were harvested by centrifugation at 14,000×g for 15 min at 4° C. and washed twice with cold deionized water. Washed cells were resuspended in 10 ml of water giving a concentration (wet weight) of about 0.31 g/ml.\nPreparation of Polyethyleneimine (PEI)-Barium Alginate Entrapped Cells: Resting cells from a one-day old culture of S. clavuligerus NP-1 (2 g wet weight) were directly resuspended in 20 ml of 1.5% (w/v) sodium alginate solution. The resulting sodium alginate-cell suspension was placed into a 10 ml plastic syringe containing a 26.6 G needle. The suspension was added drop by drop into a slowly stirring hardening solution of 2% (w/v) barium chloride containing 1% (w/v) PEI, giving beads of about 1.5-2.0 mm in diameter. […]"}, "[3]": {"target": "T3, expandase from S. clavuligerus (Streptomyces clavuligerus, UniProt P18548)", "T3 construct": "made in house; host or cells: S. lividans 1326 transformed with pHJ11, crude cell-free extract", "T3 sequence (P18548 whole entry)": "as above", "test": "Ring expansion by cell-free extracts of S. lividans transformant pHJ11 (Example 7)", "format": "biochemical", "conditions": "pHJ11 cell-free extract 6 mg/ml protein, substrate 5.6 mM, after 4 h of reaction", "method": "Microorganism, Medium and Culture Conditions: S. lividans 1326 was used in all experiments. Cultures were grown in 250 ml baffled flasks containing 40 ml of MST medium. Each flask was inoculated with 50 μl of a spore suspension (prepared and stored at −80° C. in 20% glycerol) and incubated at 30° C., 250 rpm, for 48 h.\nPlasmids: The plasmid pUL702-202a was a gift from J. F. Martin (University of León, Spain). This vector harboured a 4.3 Kb BglII fragment containing the epimerase and expandase genes from Nocardia lactamdurans inserted at the BglII site on pIJ702. The plasmid pHJ11 was constructed by cloning a 3 Kb BglII fragment containing the expandase gene from S. clavuligerus 3585 into pIJ702 at the BglII site.\nRing Expansion Reaction: The ring expansion mixture contained 1.8 mM FeSO4, 1.28 mM α-ketoglutarate, 6 mg/ml protein (cell-free extract), 8 mM KCl, 8 mM MgSO4, 14 mM DTT and 50 mM TrisHCl (pH 7.4) in a final volume of 2.5 ml. Substrate concentration was 5.6 mM. Additions were made following the order established by Shen et al. (Enzyme Microb. Technol. 6:402-404, 1984). Reaction mixtures were incubated in test tubes at 220 rpm, 30° C. At different times, 0.5 ml samples were taken and the reaction was stopped by adding 0.5 ml of methanol. […] Biotransformation activity was detected by paper disc-agar diffusion bioassay. […]"}},
  "data": [
    {"compound": "CC1(C)S[C@@H]2[C@H](NC(=O)Cc3ccccc3)C(=O)N2[C@H]1C(=O)O", "note": "[Penicillin G, penicillin G]", "values": [
      {"measurement": "substrate for expandase activity", "setting": "C. acremonium expandase; crude extracts (Kohsaka et al. 1976; Demain et al.)", "value": "not"},
      {"measurement": "ring expansion", "setting": "C. acremonium expandase; partially purified enzyme (Kupka et al. 1983)", "value": "does not expand"},
      {"measurement": "ring expansion", "setting": "[1]", "value": "not"},
      {"measurement": "cephalosporin production", "setting": "[2]; cells immobilized in agarose (4% w/v) and k-carrageenan (3% w/v)", "value": "did not observe cephalosporin production"},
      {"measurement": "ring expansion", "setting": "[2]; resting cells entrapped in PEI-barium alginate (1.5%)", "value": "able to expand penicillin G"},
      {"measurement": "production of cephalosporins", "setting": "[3]", "value": "about 7 μg/ml"}
    ]}
  ]
}
